Data: the NIST ThermoML archive (doi:10.1016/j.jct.2012.03.025)

Assay: mn = molality of the nth substance listed, in mol/kg
Conditions: 101 kPa, Liquid; for speed of sound: Sing-around technique in a fixed-path interferometer; for mass density: Vibrating tube method

CCCCn1cc[n+](C)c1.[Br-] [1-butyl-3-methylimidazolium bromide] + O
Conditions	mass density, 288.15 K [kg/m3]	mass density, 293.15 K [kg/m3]	mass density, 298.15 K [kg/m3]	mass density, 303.15 K [kg/m3]	mass density, 308.15 K [kg/m3]	speed of sound, 288.15 K [m/s]	speed of sound, 293.15 K [m/s]	speed of sound, 298.15 K [m/s]	speed of sound, 303.15 K [m/s]	speed of sound, 308.15 K [m/s]
m1 = 0.0513	1001.7	1000.78	999.601	998.177	996.522	1472.8	1488.1	1501.8	1513.7	1524
m1 = 0.1034	1004.29	1003.33	1002.13	1000.67	998.994	1478.8	1493.6	1506.8	1518.3	1528.2
m1 = 0.1531	1006.73	1005.72	1004.51	1003.02	1001.34	1484.5	1498.7	1511.5	1522.5	1532
m1 = 0.2012	1009.09	1008.05	1006.79	1005.29	1003.58	1489.6	1503.7	1516	1526.6	1535.7
m1 = 0.2499	1011.45	1010.37	1009.06	1007.54	1005.82	1494.9	1508.5	1520.4	1530.7	1539.3
m1 = 0.2995	1013.81	1012.7	1011.38	1009.81	1008.07	1500.4	1513.5	1524.9	1534.6	1543
m1 = 0.35	1016.21	1015.02	1013.64	1012.1	1010.34	1505.5	1518.3	1529.3	1538.7	1546.7
m1 = 0.4008	1018.58	1017.37	1015.96	1014.35	1012.6	1510.9	1523	1533.6	1542.6	1550.2
m1 = 0.4565	1021.19	1019.89	1018.45	1016.8	1015.05	1516.4	1528.1	1538.2	1546.8	1554
m1 = 0.5012	1023.28	1021.91	1020.5	1018.75	1017.01	1520.9	1532.2	1542	1550.2	1557.1

CCCCn1cc[n+](C)c1.[I-] [1-butyl-3-methylimidazolium iodide] + O
Conditions	mass density, 288.15 K [kg/m3]	mass density, 293.15 K [kg/m3]	mass density, 298.15 K [kg/m3]	mass density, 303.15 K [kg/m3]	mass density, 308.15 K [kg/m3]	speed of sound, 288.15 K [m/s]	speed of sound, 293.15 K [m/s]	speed of sound, 298.15 K [m/s]	speed of sound, 303.15 K [m/s]	speed of sound, 308.15 K [m/s]
m1 = 0.0514	1003.51	1002.58	1001.37	999.906	998.257	1471.2	1486.3	1500	1511.9	1522.2
m1 = 0.1017	1007.71	1006.74	1005.46	1003.96	1002.28	1475.6	1489.8	1503	1514.5	1524.4
m1 = 0.1497	1011.65	1010.64	1009.32	1007.76	1006.08	1479.5	1493.2	1505.8	1516.8	1526.2
m1 = 0.1995	1015.69	1014.61	1013.26	1011.7	1009.95	1483.3	1496.4	1508.5	1519.1	1528.1
m1 = 0.2522	1019.87	1018.75	1017.37	1015.77	1013.98	1487.2	1499.6	1511.4	1521.6	1530.1
m1 = 0.3025	1023.82	1022.63	1021.27	1019.6	1017.78	1491	1502.7	1514	1523.7	1531.9
m1 = 0.3477	1027.3	1026.08	1024.71	1023	1021.14	1494.2	1505.2	1516.1	1525.5	1533
m1 = 0.4036	1031.57	1030.23	1028.85	1027.14	1025.23	1498	1508.5	1519	1527.7	1534.9
m1 = 0.4508	1035.08	1033.71	1032.38	1030.58	1028.63	1501.1	1511.1	1521.1	1529.7	1536.2
m1 = 0.5032	1038.95	1037.5	1036.15	1034.41	1032.4	1504.9	1514.1	1523.7	1531.8	1537.6
